Three compounds from US20140228366A1, “HETEROARYL-SUBSTITUTED PYRAZOLOPYRIDINES AND USE THEREOF AS SOLUBLE GUANYLATE CYCLASE STIMULATORS” (BAYER INTELLECTUAL PROPERTY GMBH, priority 2011, published 2014) can be followed below.

Structures are written as SMILES. pIC50: −log10 of the molar value.

As a reminder, the pIC50 is −log10 of the IC50, conventionally taken in molar units. A low value points to a high IC50. By MRT is commonly meant the average time that molecules of a dose stay in the body. In general, half-life refers to how long it takes for the measured level to halve. Higher therefore signals slow decline.

The test system of one data set is rabbit aorta rings. As to the kind of experiment: Vasorelaxant effect in vitro (phenylephrine-contracted aorta rings). The conditions noted are these: Oryctolagus cuniculus, phenylephrine contraction, concentration reducing control contraction by 50%. The protocol: Rabbits are stunned by a blow to the neck and exsanguinated. The aorta is removed, freed from adhering tissue and divided into rings of a width of 1.5 mm. The rings are placed individually under an initial tension in 5 ml organ baths with Krebs-Henseleit solution which is at 37° C., is gassed with carbogen and has the following composition (in each case mM): sodium chloride: 119; potassium chloride: 4.8; calcium chloride dihydrate: 1; magnesium sulphate heptahydrate: 1.4; potassium dihydrogenphosphate: 1.2; sodium bicarbonate: 25; glucose: 10. The contractile force is determined with Statham UC2 cells, amplified and digitalized using A/D transducers (DAS-1802 HC, Keithley Instruments Munich), and recorded in parallel on linear recorders. To produce a contraction, phenylephrine is added to the bath cumulatively in increasing concentration. After several control cycles, the substance to be investigated is added in each further run in increasing dosage in each case, and the height of the contraction achieved is compared with the height of the contraction reached in the last preceding run. This is used to calculate the concentration needed to reduce the magnitude of the control value by 50% (IC50 value). The standard administration volume is 5 μl; the DMSO content in the bath solution corresponds to 0.1%.

Data set [1] has as its target T1, recombinant guanylate cyclase reporter cell line (Rattus norvegicus, UniProt P19686+P20595).
T1 construct: expressed in transfected cells; host or cells: recombinant reporter cell line
T1 sequence (P19686 1-690): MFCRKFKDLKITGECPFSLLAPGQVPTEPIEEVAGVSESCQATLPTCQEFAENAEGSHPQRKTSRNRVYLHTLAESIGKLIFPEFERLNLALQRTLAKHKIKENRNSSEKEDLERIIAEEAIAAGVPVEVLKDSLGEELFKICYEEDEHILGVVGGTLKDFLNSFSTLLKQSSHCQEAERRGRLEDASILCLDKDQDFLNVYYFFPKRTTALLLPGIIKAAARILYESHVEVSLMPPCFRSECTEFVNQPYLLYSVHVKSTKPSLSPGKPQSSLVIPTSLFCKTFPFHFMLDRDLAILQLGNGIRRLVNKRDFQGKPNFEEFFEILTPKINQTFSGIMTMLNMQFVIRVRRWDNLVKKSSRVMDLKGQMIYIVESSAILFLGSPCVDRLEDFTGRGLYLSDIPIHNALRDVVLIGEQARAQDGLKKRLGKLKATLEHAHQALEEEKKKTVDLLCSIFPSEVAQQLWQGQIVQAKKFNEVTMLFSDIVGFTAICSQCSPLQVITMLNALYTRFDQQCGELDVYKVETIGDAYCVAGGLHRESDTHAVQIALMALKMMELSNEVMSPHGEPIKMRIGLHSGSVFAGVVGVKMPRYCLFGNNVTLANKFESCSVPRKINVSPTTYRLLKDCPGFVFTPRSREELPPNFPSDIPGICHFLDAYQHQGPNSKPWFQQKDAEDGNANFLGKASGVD
T1 sequence (P20595 1-619): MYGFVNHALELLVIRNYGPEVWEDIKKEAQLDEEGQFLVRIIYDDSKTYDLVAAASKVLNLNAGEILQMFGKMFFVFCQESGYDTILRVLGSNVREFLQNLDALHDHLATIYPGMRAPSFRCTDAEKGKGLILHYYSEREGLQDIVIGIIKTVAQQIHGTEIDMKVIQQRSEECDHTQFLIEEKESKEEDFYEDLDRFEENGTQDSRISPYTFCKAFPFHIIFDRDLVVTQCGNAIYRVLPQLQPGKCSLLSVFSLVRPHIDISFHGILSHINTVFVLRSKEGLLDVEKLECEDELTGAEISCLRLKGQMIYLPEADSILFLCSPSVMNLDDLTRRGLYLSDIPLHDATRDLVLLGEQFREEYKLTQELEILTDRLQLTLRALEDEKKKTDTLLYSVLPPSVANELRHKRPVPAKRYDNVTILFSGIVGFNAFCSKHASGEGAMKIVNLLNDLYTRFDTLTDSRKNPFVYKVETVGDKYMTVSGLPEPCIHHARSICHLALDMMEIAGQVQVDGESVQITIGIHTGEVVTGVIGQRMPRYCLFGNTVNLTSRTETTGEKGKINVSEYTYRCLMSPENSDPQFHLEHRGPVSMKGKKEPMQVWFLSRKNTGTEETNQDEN
As to the kind of experiment: Effect on a recombinant guanylate cyclase reporter cell line. The data set is classed as cell-based. The protocol:
The cellular activity of the compounds according to the invention is determined using a recombinant guanylate cyclase reporter cell line, as described in F. Wunder et al., Anal. Biochem. 339, 104-112 (2005).

Data set [2] is described as follows: Pharmacokinetic parameters following intravenous administration in rats. Format: in vivo, male Wistar rats. The settings on record: intravenous administration of 0.3 mg/kg; for MRT / half-life: male, Wistar, rat, plasma; for half-life: terminal half life. The protocol: The pharmacokinetic parameters of the compounds of the formula (I) according to the invention are determined in male CD-1 mice, male Wistar rats and/or female beagles. The administration volume is 5 ml/kg for mice, 5 ml/kg for rats and 0.5 ml/kg for dogs. Intravenous administration is via a formulation of species-specific plasma/DMSO (99/1) in the case of mice and rats and via water/PEG400/ethanol (50/40/10 or 30/60/10) in the case of dogs. The removal of blood from rats is simplified by inserting a silicone catheter into the right Vena jugularis externa prior to substance administration. The surgical intervention takes place one day prior to the experiment with isofluran anesthesia and administration of an analgetic (atropine/rimadyl (3/1) 0.1 ml s.c.). Substance administration is as i.v. bolus in the case of mice, as i.v. bolus or via a 15-minute infusion in the case of rats and via a 15-minute infusion in the case of dogs. Removal of blood is after 0.033, 0.083, 0.17, 0.5, 1, 2, 3, 4, 6, 7 and 24 hours in the case of mice and, after a 15-minute infusion, after 0.083, 0.25, 0.28, 0.33, 0.42, 0.75, 1, 2, 3, 4, 6, 7 (or 8 in the case of Example 3) and 24 hours in the case of dogs and rats and after an i.v. bolus administration, after 0.033, 0.083, 0.17, 0.5, 1, 2, 3, 4, 6, 7 and 24 hours in the case of rats. For all species, oral administration of the dissolved substance via gavage is carried out based on a water/PEG400/ethanol formulation (50/40/10). Here, the removal of blood from rats and dogs is after 0.083, 0.17, 0.5, 0.75, 1, 2, 3, 4, 6, 7 and 24 hours. The blood is removed into heparinized tubes. The blood plasma is then obtained by centrifugation; if required, it can be stored at −20° C. until further processing.
An internal standard (ZK 228859) is added to the samples of the compounds of the formula (I) according to the invention, calibration samples and QCs, and the protein is precipitated using excess acetonitrile. After addition of an ammonium acetate buffer (0.01 M, pH 6.8) and subsequent vortexing, the mixture is centrifuged at 1000 g and the supernatant is examined by LC-MS/MS (API 4000, AB Sciex). Chromatographic separation is carried out on an Agilent 1100-HPLC. The injection volume is 10 μl. The separation column used is a Phenomenex Luna 5μ C8(2) 100A 50×2 mm, adjusted to a temperature of 40° C. A binary mobile phase gradient at 500 μl/min is used (A: 0.01M ammonium acetate buffer pH 6.8, B: 0.1% formic acid in acetonitrile): 0 min (90% A), 1 min (90% A), 3 min (10% A), 4 min (10% A), 4.50 min (90% A), 6 min (90% A). The temperature of the Turbo V ion source is 500° C. (Example 2), 400° C. (Example 3) or 450° C. (Example 6). The following MS instrument parameters are used: curtain gas 15 units (Examples 2 and 3) or 10 units (Example 6), ion spray voltage 4.8 kV, gas 1 45 units (Example 2) or 50 units (Examples 3 and 6), gas 2 35 units (Examples 2 and 6) or 40 units (Example 3), CAD gas 4 units (Examples 2 and 6) or 8 units (Example 3). The substances are quantified by peak heights or areas using extracted ion chromatograms of specific MRM experiments.
The plasma concentration/time plots determined are used to calculate the pharmacokinetic parameters such as AUC, Cmax, t112 (terminal half life), MRT (mean residence time) and CL (clearance), using the validated pharmacokinetic calculation program KinEx (Vers. 3).
Since the substance quantification is performed in plasma, it is necessary to determine the blood/plasma distribution of the substance in order to be able to adjust the pharmacokinetic parameters correspondingly. For this purpose, a defined amount of substance is incubated in heparinized whole blood of the species in question in a rocking roller mixer for 20 min. After centrifugation at 1000 g, the plasma concentration is measured (see above) and determined by calculating the quotient of the Cblood/Cplasma values.

Consider `CC1(C)C(=O)Nc2nc(-c3nn(Cc4ncccc4F)c4ncc(F)cc34)nnc21` [Example 2, 3-{5-Fluoro-1-[(3-fluoropyridin-2-yl)methyl]-1H-pyrazolo[3,4-b]pyridin-3-yl}-7,7-dimethyl-5,7-dihydro-6H-pyrrolo[2,3-e][1,2,4]triazin-6-one], for which the negative-log IC50 (pIC50) in the data set with rabbit aorta rings was 6.63. In addition, the “MEC (minimum effective concentration)” value in data set [1] was found to be 1 µM. In addition, in data set [2], the AUCnorm turned out to be 13 kg·h/L, the CLblood is 2.17 mL/min/kg, the MRT amounted to 7.9 h and the half-life was 6.1 h.

Take `CC1(C)C(=O)Nc2nc(-c3nn(Cc4ncccc4F)c4ncc(F)cc34)nc(N)c21` [Example 3, 4-Amino-2-{5-fluoro-1-[(3-fluoropyridin-2-yl)methyl]-1H-pyrazolo[3,4-b]pyridin-3-yl}-5,5-dimethyl-5,7-dihydro-6H-pyrrolo[2,3-d]pyrimidin-6-one]: the negative-log IC50 (pIC50) with rabbit aorta rings is 7.47. The “MEC (minimum effective concentration)” value in data set [1] turned out to be 0.3 µM. Besides, in data set [2], the AUCnorm amounted to 0.93 kg·h/L, the CLblood was 15.5 mL/min/kg, the mean residence time (MRT) came to 1.3 h and the half-life is 1 h.

Compound `CC1(C)C(=O)Nc2nc(-c3nn(Cc4ncccc4F)c4ncc(F)cc34)ncc21` [Example 6, 2-{5-Fluoro-1-[(3-fluoropyridin-2-yl)methyl]-1H-pyrazolo[3,4-b]pyridin-3-yl}-5,5-dimethyl-5,7-dihydro-6H-pyrrolo[2,3-d]pyrimidin-6-one] gave a pIC50 in the data set on rabbit aorta rings of 7.09. In data set [1], the “MEC (minimum effective concentration)” value was determined as 0.03 µM. In data set [2], this compound had an AUCnorm of 3.5 kg·h/L, a CLblood of 6.17 mL/min/kg, a mean residence time (MRT) of 5.6 h and a half-life of 4.4 h.
